Test system: P12-Ichikawa
Test: cell viability relative to DMSO control; higher = less cytotoxic
Conditions: 48 h
Procedure, shortened: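 Viability, reported as a per-plate percentage of DMSO wells with cell-free wells as background, came from CellTiter-Glo One luminescence. Reading took place after 48 h at 37°C. Before that, NOMO1 or SEM (500 cells/well) or P12-Ichikawa (1000 cells/well) leukemia cells, adapted for at least four passages in each medium, were seeded in 1536-well plates (5 μl) and pin-dosed with library compounds in DMSO, 47 μM to 0.79 nM over 11 threefold points.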

[1] = HPLM + 10% dialyzed FBS, 0.000781 µM
[2] = HPLM + 10% dialyzed FBS, 0.00234 µM
[3] = HPLM + 10% dialyzed FBS, 0.00702 µM
[4] = HPLM + 10% dialyzed FBS, 0.0211 µM
[5] = HPLM + 10% dialyzed FBS, 0.0632 µM
[6] = HPLM + 10% dialyzed FBS, 0.19 µM
[7] = HPLM + 10% dialyzed FBS, 0.569 µM
[8] = HPLM + 10% dialyzed FBS, 1.71 µM
[9] = HPLM + 10% dialyzed FBS, 5.12 µM
[10] = HPLM + 10% dialyzed FBS, 15.4 µM
[11] = HPLM + 10% dialyzed FBS, 46.1 µM
[12] = RPMI 5 mM glucose + 10% FBS, 0.000781 µM
[13] = RPMI 5 mM glucose + 10% FBS, 0.00234 µM
[14] = RPMI 5 mM glucose + 10% FBS, 0.00702 µM
[15] = RPMI 5 mM glucose + 10% FBS, 0.0211 µM
[16] = RPMI 5 mM glucose + 10% FBS, 0.0632 µM
[17] = RPMI 5 mM glucose + 10% FBS, 0.19 µM
[18] = RPMI 5 mM glucose + 10% FBS, 0.569 µM
[19] = RPMI 5 mM glucose + 10% FBS, 1.71 µM
[20] = RPMI 5 mM glucose + 10% FBS, 5.12 µM
[21] = RPMI 5 mM glucose + 10% FBS, 15.4 µM
[22] = RPMI 5 mM glucose + 10% FBS, 46.1 µM
[23] = RPMI 5 mM glucose + 10% dialyzed FBS, 0.000781 µM
[24] = RPMI 5 mM glucose + 10% dialyzed FBS, 0.00234 µM
[25] = RPMI 5 mM glucose + 10% dialyzed FBS, 0.00702 µM
[26] = RPMI 5 mM glucose + 10% dialyzed FBS, 0.0211 µM
[27] = RPMI 5 mM glucose + 10% dialyzed FBS, 0.0632 µM
[28] = RPMI 5 mM glucose + 10% dialyzed FBS, 0.19 µM
[29] = RPMI 5 mM glucose + 10% dialyzed FBS, 0.569 µM
[30] = RPMI 5 mM glucose + 10% dialyzed FBS, 1.71 µM
[31] = RPMI 5 mM glucose + 10% dialyzed FBS, 5.12 µM
[32] = RPMI 5 mM glucose + 10% dialyzed FBS, 15.4 µM
[33] = RPMI 5 mM glucose + 10% dialyzed FBS, 46.1 µM

CCN1\C=C(\C(O)=O)C(=O)C2=CC=C(C)N=C12
cell viability [1]: 88.3%
cell viability [2]: 93.8%
cell viability [3]: 101%
cell viability [4]: 96.3%
cell viability [5]: 101%
cell viability [6]: 93.7%
cell viability [7]: 105%
cell viability [8]: 97.6%
cell viability [9]: 95.7%
cell viability [10]: 105%
cell viability [11]: 93.6%
cell viability [12]: 79.7%
cell viability [13]: 82.3%
cell viability [14]: 90%
cell viability [15]: 90.1%
cell viability [16]: 84.6%
cell viability [17]: 89.3%
cell viability [18]: 89.7%
cell viability [19]: 90.6%
cell viability [20]: 88.8%
cell viability [21]: 98.8%
cell viability [22]: 97%
cell viability [23]: 77.2%
cell viability [24]: 90.6%
cell viability [25]: 87.1%
cell viability [26]: 91%
cell viability [27]: 96%
cell viability [28]: 88.6%
cell viability [29]: 86.4%
cell viability [30]: 87.4%
cell viability [31]: 91.3%
cell viability [32]: 92.4%
cell viability [33]: 90.1%

Nc1ncnc2c1c(-c1cnc3[nH]ccc3c1)nn2C1CCCC1
cell viability [1]: 117%
cell viability [2]: 121%
cell viability [3]: 112%
cell viability [4]: 111%
cell viability [5]: 103%
cell viability [6]: 106%
cell viability [7]: 95.7%
cell viability [8]: 81.3%
cell viability [9]: 71.2%
cell viability [10]: 52.2%
cell viability [11]: 28.7%
cell viability [12]: 122%
cell viability [13]: 118%
cell viability [14]: 122%
cell viability [15]: 117%
cell viability [16]: 106%
cell viability [17]: 96.5%
cell viability [18]: 90.1%
cell viability [19]: 63.5%
cell viability [20]: 53.7%
cell viability [21]: 40.3%
cell viability [22]: 26.2%

CC(C)C(=O)Oc1ccc(CO)cc1[C@H](CCN(C(C)C)C(C)C)c1ccccc1
cell viability [1]: 92%
cell viability [2]: 87.1%
cell viability [3]: 89.2%
cell viability [4]: 85.3%
cell viability [5]: 90.1%
cell viability [6]: 99%
cell viability [7]: 75.7%
cell viability [8]: 69.3%
cell viability [9]: 86.2%
cell viability [10]: 76.8%
cell viability [11]: 81.8%
cell viability [12]: 81.1%
cell viability [13]: 82.5%
cell viability [14]: 85.6%
cell viability [15]: 83.4%
cell viability [16]: 83.2%
cell viability [17]: 83.9%
cell viability [18]: 86.1%
cell viability [19]: 84.9%
cell viability [20]: 81.5%
cell viability [21]: 80.7%
cell viability [22]: 83.4%
cell viability [23]: 78.9%
cell viability [24]: 76.3%
cell viability [25]: 82.9%
cell viability [26]: 80.1%
cell viability [27]: 87%
cell viability [28]: 84.2%
cell viability [29]: 79.7%
cell viability [30]: 78.8%
cell viability [31]: 77.1%
cell viability [32]: 73.1%
cell viability [33]: 78.1%

O=C(Nc1ccc(F)c(C(F)(F)F)c1)Nc1nnc(-c2ccncc2)s1
cell viability [1]: 125%
cell viability [2]: 121%
cell viability [3]: 119%
cell viability [4]: 115%
cell viability [5]: 129%
cell viability [6]: 112%
cell viability [7]: 120%
cell viability [8]: 115%
cell viability [9]: 119%
cell viability [10]: 111%
cell viability [11]: 100%
cell viability [12]: 113%
cell viability [13]: 127%
cell viability [14]: 125%
cell viability [15]: 109%
cell viability [16]: 112%
cell viability [17]: 114%
cell viability [18]: 114%
cell viability [19]: 118%
cell viability [20]: 113%
cell viability [21]: 111%
cell viability [22]: 99.5%
cell viability [23]: 115%
cell viability [24]: 121%
cell viability [25]: 129%
cell viability [26]: 113%
cell viability [27]: 123%
cell viability [28]: 120%
cell viability [29]: 127%
cell viability [30]: 115%
cell viability [31]: 114%
cell viability [32]: 106%
cell viability [33]: 113%

CC(C)=CC[C@@H](O)C/1=C/C(=O)C2=C(O)C=CC(=C2C1=O)O
cell viability [1]: 90.8%
cell viability [2]: 107%
cell viability [3]: 111%
cell viability [4]: 108%
cell viability [5]: 109%
cell viability [6]: 109%
cell viability [7]: 118%
cell viability [8]: 111%
cell viability [9]: 104%
cell viability [10]: 17.1%
cell viability [11]: 8.56%
cell viability [12]: 93.6%
cell viability [13]: 113%
cell viability [14]: 114%
cell viability [15]: 120%
cell viability [16]: 120%
cell viability [17]: 114%
cell viability [18]: 120%
cell viability [19]: 106%
cell viability [20]: 108%
cell viability [21]: 22.9%
cell viability [22]: 8.56%
cell viability [23]: 92.7%
cell viability [24]: 106%
cell viability [25]: 108%
cell viability [26]: 108%
cell viability [27]: 113%
cell viability [28]: 107%
cell viability [29]: 118%
cell viability [30]: 117%
cell viability [31]: 113%
cell viability [32]: 55.2%
cell viability [33]: 21%

Nc1nc(N)c2nc(CNc3ccc(C(=O)NC(CCC(=O)O)C(=O)O)cc3)cnc2n1 (stereo unspecified)
cell viability [1]: 103%
cell viability [2]: 111%
cell viability [3]: 110%
cell viability [4]: 114%
cell viability [5]: 59.2%
cell viability [6]: 47.7%
cell viability [7]: 31%
cell viability [8]: 31.8%
cell viability [9]: 44%
cell viability [10]: 39.6%
cell viability [11]: 29.7%
cell viability [12]: 103%
cell viability [13]: 103%
cell viability [14]: 103%
cell viability [15]: 123%
cell viability [16]: 71.2%
cell viability [17]: 37.9%
cell viability [18]: 46.6%
cell viability [19]: 47%
cell viability [20]: 38.5%
cell viability [21]: 51.2%
cell viability [22]: 61%
cell viability [23]: 105%
cell viability [24]: 95.5%
cell viability [25]: 105%
cell viability [26]: 112%
cell viability [27]: 86%
cell viability [28]: 28.1%
cell viability [29]: 25.8%
cell viability [30]: 24%
cell viability [31]: 25.9%
cell viability [32]: 26.2%
cell viability [33]: 26.2%

COCCCN1CCC(NC(=O)c2cc(Cl)c(N)c3c2OCC3)CC1
cell viability [1]: 114%
cell viability [2]: 124%
cell viability [3]: 127%
cell viability [4]: 132%
cell viability [5]: 132%
cell viability [6]: 134%
cell viability [7]: 134%
cell viability [8]: 133%
cell viability [9]: 146%
cell viability [10]: 132%
cell viability [11]: 124%

C[N]1C=C(C2=C1C=CC=C2)\C3=C(\C(=O)NC3=O)C4=C5CC(CN)CC[N]5C6=C4C=CC=C6 (stereo unspecified)
cell viability [1]: 103%
cell viability [2]: 105%
cell viability [3]: 106%
cell viability [4]: 113%
cell viability [5]: 98%
cell viability [6]: 116%
cell viability [7]: 110%
cell viability [8]: 108%
cell viability [9]: 106%
cell viability [10]: 84.2%
cell viability [11]: 60.3%
cell viability [12]: 97.2%
cell viability [13]: 108%
cell viability [14]: 101%
cell viability [15]: 111%
cell viability [16]: 90.5%
cell viability [17]: 117%
cell viability [18]: 120%
cell viability [19]: 115%
cell viability [20]: 94.6%
cell viability [21]: 66.2%
cell viability [22]: 45%
cell viability [23]: 119%
cell viability [24]: 116%
cell viability [25]: 119%
cell viability [26]: 113%
cell viability [27]: 113%
cell viability [28]: 129%
cell viability [29]: 129%
cell viability [30]: 119%
cell viability [31]: 109%
cell viability [32]: 83.4%
cell viability [33]: 45.7%

Reference: the supplement of paper PMC11451515
